# Measured values: US20250186584A1, “METHODS OF TREATING BILIARY TRACT CANCER USING ANTI-PD-L1 ANTIBODY IN COMBINATION WITH CHEMOTHERAPY” (ASTRAZENECA AB, priority 2022, published 2025)
# Where “and” joins values, the source holds several entries; their conditions need not be identical. Identical values can stand only once. Entries after “also recorded” stand apart in the source; their conditions may differ.
# How the values were obtained:
# [1] = test system: unresectable, locally advanced, or metastatic biliary tract cancer; assay: TOPAZ-1 phase 3 study: efficacy of durvalumab or placebo plus gemcitabine and cisplatin (OS, PFS, tumor response per RECIST v1.1); format: in vivo, human; conditions: for Difference in overall survival: versus placebo plus gemcitabine and cisplatin; for Objective response rate: investigator assessment, RECIST v1.1, patients with measurable disease at baseline
# Protocol: This is a randomized, double-blind, placebo controlled, multi-center, global, Phase III study which determined the efficacy and safety of first-line treatment with durvalumab in combination with gemcitabine/cisplatin versus placebo in combination with gemcitabine/cisplatin in patients with previously untreated, unresectable, locally advanced, or metastatic BTC.
# Arm A: Durvalumab plus gemcitabine/cisplatin combination therapy. Durvalumab 1500 mg via intravenous (IV) infusion q3w, starting on Cycle 1 in combination with cisplatin 25 mg/m^2 and gemcitabine 1000 mg/m^2 (each administered on Days 1 and 8 q3w) up to 8 cycles, followed by durvalumab 1500 mg as monotherapy q4w until clinical progression or RECIST 1.1-defined radiological progressive disease (PD), unless there is unacceptable toxicity, withdrawal of consent, or another discontinuation criterion is met.
# Arm B: Placebo plus gemcitabine/cisplatin therapy. Placebo via IV infusion q3w, starting on Cycle 1 in combination with cisplatin 25 mg/m^2 and gemcitabine 1000 mg/m^2 (each administered on Days 1 and 8 q3w) up to 8 cycles, followed by placebo monotherapy q4w until clinical progression or RECIST 1.1-defined radiological PD, unless there is unacceptable toxicity, withdrawal of consent, or another discontinuation criterion is met.
# Adults aged ≥18 years with histologically confirmed unresectable, locally advanced, or metastatic adenocarcinoma of the biliary tract, including intrahepatic or extrahepatic cholangiocarcinoma and gallbladder carcinoma, were eligible for inclusion. Eligible patients included those with previously untreated disease that was unresectable or metastatic at initial diagnosis and those who developed recurrent disease >6 months after surgery with curative intent and >6 months after the completion of adjuvant therapy. Other inclusion criteria included an Eastern Cooperative Oncology Group (ECOG) performance status of 0 or 1, ≥1 measurable lesion per Response Evaluation Criteria in Solid Tumors (RECIST) v1.1, and no prior exposure to immune-meditated therapy. Patients were excluded if they had ampullary carcinoma, active or prior documented autoimmune or inflammatory disorders, or known allergy or hypersensitivity to any study treatment.
# TOPAZ-1 was a phase 3, randomized, double-blind, placebo-controlled, global study. Patients were randomly assigned in a 1:1 ratio to receive durvalumab in combination with gemcitabine and cisplatin or placebo in combination with gemcitabine and cisplatin.
# Baseline tumor assessments were performed using images acquired≤28 days before randomization. During the study period, tumor assessments were performed every 6 weeks (±1 week) for the first 24 weeks after randomization, and then every 8 weeks (±1 week) thereafter, until radiological disease progression, followed by ≥1 additional follow-up scan. Survival assessments were performed every 2 months following treatment discontinuation. Patients on treatment or in survival follow-up were contacted following the data cutoff for the interim analysis to provide complete survival data. Newly acquired tumor biopsy samples or archival samples taken≤3 years prior to screening were obtained by an image-guided core needle or by excision from all screened patients. Tissue samples were retrospectively evaluated for programmed cell death ligand 1 (PD-L1) expression by the Ventana PD-L1 (SP263) immunohistochemistry assay in all randomized patients using the tumor area positivity (TAP) score method. “TAP” is the proportion of tumor and/or immune cells with PD-L1 staining at any intensity and can be used interchangeably with “TIP.” A TAP score of ≥1% was defined as PD-L1 staining of any intensity in tumor cell membranes and/or tumor-associated immune cells covering ≥1% of the tumor area. A TAP score of <1% was defined as PD-L1 staining of any intensity in tumor cell membranes and/or tumor-associated immune cells covering <1% of tumor area. […]
# xenograft model = conditions: via a T-cell dependent mechanism; cited from earlier work
# PD-L1 = PD-L1 (Homo sapiens, UniProt Q9NZQ7); conditions: in vitro; cited from earlier work
# PD-L1, sequence (Q9NZQ7 19-290): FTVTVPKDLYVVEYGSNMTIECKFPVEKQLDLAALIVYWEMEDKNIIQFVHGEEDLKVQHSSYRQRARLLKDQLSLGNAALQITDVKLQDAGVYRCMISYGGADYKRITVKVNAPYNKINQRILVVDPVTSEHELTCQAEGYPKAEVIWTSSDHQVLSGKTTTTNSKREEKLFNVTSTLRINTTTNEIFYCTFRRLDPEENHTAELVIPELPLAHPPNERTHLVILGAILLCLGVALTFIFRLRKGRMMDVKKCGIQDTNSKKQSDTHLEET
# [2] = patients with objective response
substance,measurement,setting,value
"Durvalumab plus Gemcitabine and Cisplatin: Durvalumab 1500 mg IV q3w with cisplatin 25 mg/m^2 and gemcitabine 1000 mg/m^2 up to 8 cycles, then durvalumab monotherapy q4w","Abdominal pain upper, Grade 3/4",adverse events of any causality,0 no.
same,"Adrenal insufficiency, Grade 3 or 4",immune-mediated adverse events,0 no.
same,"Hyperthyroid events, Grade 3 or 4",immune-mediated adverse events,0 no.
same,"Hypophysitis, Grade 3 or 4",immune-mediated adverse events,0 no.
same,"Hypothyroid events, Grade 3 or 4",immune-mediated adverse events,0 no.
same,"Myositis, Any Grade",immune-mediated adverse events,0 no.
same,"Myositis, Grade 3 or 4",immune-mediated adverse events,0 no.
same,"Pancreatic events, Grade 3 or 4",immune-mediated adverse events,0 no.
same,"Renal events, Any Grade",immune-mediated adverse events,0 no.
same,"Renal events, Grade 3 or 4",immune-mediated adverse events,0 no.
same,"Thyroiditis, Grade 3 or 4",immune-mediated adverse events,0 no.
same,Difference in overall survival,[1]; at 12 months,6%
same,Difference in overall survival,[1]; at 18 months,10%
same,Difference in overall survival,[1]; at 24 months,15%
same,Median overall survival (95% CI),[1]; full analysis set,12.8 months
same,Objective response rate,[1]; listed as durvalumab+GemCis,26.7%
same,Median duration of response,[1]; [2],6.4 mo
same,Median time to response,[1]; [2],1.6 mo
same,Percentage of patients with continued response,[1]; ≥3 months,88.9%
same,Percentage of patients with continued response,[1]; ≥6 months,59.3%
same,Percentage of patients with continued response,[1]; ≥9 months,32.6%
same,Percentage of patients with continued response,[1]; ≥12 months,26.1%
durvalumab: antibody that selectively binds PD-L1 and blocks the binding of PD-L1 to PD-1 and CD80 receptors,Tumor growth in a xenograft model,xenograft model,inhibits tumor growth
same,PD-L1-mediated suppression of human T-cell activation,PD-L1,can relieve PD-L1-mediated suppression of human T-cell activation
same,Additional toxicity to that observed with chemotherapy,in vivo,did not add additional toxicity
same,"Anemia, Any Grade",in vivo,48.2%
same,"Any immune-mediated adverse event, Any Grade",in vivo,12.7%
same,"Any immune-mediated adverse event, Grade 3 or 4",in vivo,2.4%
same,"Constipation, Any Grade",in vivo,32.0%
same,Events in the other rare/miscellaneous category of immune-mediated adverse events,in vivo,immune-mediated arthritis
same,"Nausea, Any Grade",in vivo,40.2%
same,"Neutropenia, Any Grade",in vivo,31.7%
same,Treatment-related adverse event leading to discontinuation of any study treatment,in vivo,8.9%
same,"Benefit of the addition of durvalumab to gemcitabine and cisplatin, subgroup analysis of overall survival",[1]; FIG. 8,observed across all subgroups
same,"Benefit of the addition of durvalumab to gemcitabine and cisplatin, overall survival by PD-L1 expression","[1]; TAP score, Ventana PD-L1 (SP263) assay",observed across PD-L1 expression; also recorded: observed regardless of PD-L1 expression
same,Overall survival hazard ratio (95% CI),"[1]; after 6 months, durvalumab versus placebo",0.74 (0.58-0.94)
same,Estimated overall survival rate (95% CI),[1]; at 12 months,54.1%
same,Estimated overall survival rate (95% CI),[1]; at 18 months,35.1%
same,Estimated overall survival rate (95% CI),[1]; at 24 months,24.9%
same,Overall survival hazard ratio,"[1]; durvalumab versus placebo, each plus gemcitabine and cisplatin, 95% CI 0.66-0.97, P=0.021",0.80
same,Hazard ratio for progression-free survival,"[1]; durvalumab versus placebo, 95% CI 0.63-0.89, P=0.001",0.75
same,Objective response rate odds ratio,"[1]; durvalumab versus placebo, 95% CI 1.11-2.31",1.60
same,Median (95% CI) progression-free survival,[1]; full analysis set,7.2 months and 7.2 (6.7-7.4) months
same,Median overall survival (95% CI),[1]; full analysis set,12.8 (11.1-14.0) months
same,Objective response rate,[1],26.7%
same,Hazard ratio for overall survival,"[1]; patients with PD-L1 TAP score of >1%, durvalumab versus placebo, 95% CI 0.61-1.00",0.79
same,Hazard ratio for overall survival,"[1]; patients with TAP score <1%, durvalumab versus placebo, 95% CI 0.60-1.23",0.86
same,Overall survival hazard ratio (95% CI),"[1]; up to 6 months, durvalumab versus placebo",0.91 (0.66-1.26)
same,Percentage of patients with continued response,[1]; ≥9 months,32.6%
same,Percentage of patients with continued response,[1]; ≥12 months,26.1%
